Reference: patent US9024043B2, “Pimarane diterpenes from Anisochilus verticillatus” (Council of Scientific & Industrial Research, priority 2011, dated 2015)
Converted amounts (≈) assume the structure as drawn. “Also recorded” adds a separate entry of the source.

How the values were obtained:
[1] = tested on: Mycobacterium tuberculosis H37Ra; experiment: Anti-mycobacterial activity (XTT-menadione assay); type: cell-based; settings: for inhibition at 100 µg/mL: read-out: % inhibition at 100 μg/ml against M. tuberculosis (footnote c); for antimycobacterial activity against M. tuberculosis (in words): in vitro; for IC90: concentration exhibiting 90% inhibition against growth, H37Ra, 8th day of incubation, read-out: IC90 value determined against M. tuberculosis
Experimental: All the isolated compounds and whole acetone extract were tested for their in vitro effect against Mycobacterium tuberculosis H37Ra culture maintained in-house.
M. tuberculosis, H37Ra (ATCC 25177) cells were grown to logarithmic phase (O.D.595˜1.0) in a defined medium (M. pheli medium) under aerobic conditions in a shaker incubator (Thermo Electron Corporation Model 481) maintained at 150 rpm and 37° C. After growth, the culture was sonicated for 2 min using a water bath sonicator. Sonicated cells were used for inoculation in micro plate wells. 250 μl of the culture containing ˜10 5 cells/ml was added to each well of 96 well plates. 2.5 μl of the test samples dissolved in DMSO was added to the wells to attain a final concentration of 100 ug/ml respectively for the preliminary screening. Dose response curve of the active compounds was carried out by making serial dilutions of the test samples. Then, the plate was incubated in a CO2 incubator at 37° C. The plate was taken out on the 8th day of incubation to measure the viable cell counts. The optical density of the culture was measured before addition of XTT at 470 nm which was served as a blank for the MIC calculations. 200 μM XTT was added and incubated for 20 min at 37° C. after shaking for 1 min. After 20 min of incubation, 60 μM menadione was added and incubated at 37° C. for 40 min after mixing of 1 min. Finally, the optical density of the suspension was measured at 470 nm by using microplate reader.

[2] = tested on: THP-1 (Human acute leukemia cells) cell lines; experiment: Cytotoxicity studies (MTT assay); type: cell-based; settings: for inhibition at 100 µg/mL: Homo sapiens, THP-1, 100 μg/ml, 72 h, MTT, read-out: % Inhibition on Thp-1 cell line at 100 μg/ml
Experimental: Compounds 3 was tested at IC90 values and also at higher concentration, 100 μg/ml, for their in vitro cytotoxicity against THP-1 (Human acute leukemia cells) cell lines procured from National Cell Repository, India.
About 10,000 cells were taken per well in 96-well tissue culture plates and treated with compound 3 at IC90 values and also at higher concentration, 100 μg/ml for 72 h. Vehicle control (DMSO, 1%) and positive control (Paclitaxel, 100 μg/ml) were run simultaneously. Cell proliferation was assessed with 10 μl from 5 mg/ml stock solution of tetrazolium salt (MTT) dissolved in cell culture medium and subsequently incubated for additional 1 h at 37° C., 5% of CO2 and 95% humidity in incubator. The violet coloured formazan crystals formed were solubilized in 200 μl of isopropanol and incubated for another 4 h. The optical density was read on a micro plate reader (Spectramax plus384 plate reader, Molecular Devices Inc) at 490 nm filter against a blank prepared from cell-free wells. Absorbance given by cells treated with the carrier DMSO alone was taken as 100% cell growth. All experiments were performed in triplicate, and the quantitative value was expressed as the average±standard deviation.

[3] = Mycobacterium tuberculosis, H37RA

Row | SMILES | inhibition at 100 µg/mL [1, 3] [%] | antimycobacterial activity against M. tuberculosis (in words) [1] | IC90 ([1]; Mycobacterium tuberculosis) [µg/mL] | inhibition at 100 µg/mL [2] [%] | also measured
1 | C=C[C@@]1(C)CC[C@@]2(O)[C@]3(CC[C@@]4(OO3)C(C)(C)CCC[C@]24C)C1 [Compound 1, pimarane-5,8-peroxide] | 42.9 | effective |  |  | 
2 | C=C[C@@]1(C)CC[C@H]2[C@@](O)(C[C@@H](O)[C@@]3(O)C(C)(C)CCC[C@]23C)C1 [Compound 2, pimarane-triol] |  | effective | 20 (≈ 62 µM) |  | 
3 | C=C[C@@]1(C)CC[C@@]2(O)[C@@](O)(C[C@@H](O)[C@@]3(O)C(C)(C)CCC[C@]23C)C1 [Compound 3, pimarane-tetrol] | 35 | effective |  | 57.2 | anti-cancer activity against THP-1 cell lines (in words) ([2]; in vitro): showed anti-cancer activity; also recorded: comparable to that of known standard drug, paclitaxel
4 | C=CCc1ccc(O)c(O)c1 [Compound 4, Hydroxychavicol] |  | effective |  |  | IC50 ([1]; Mycobacterium tuberculosis, H37RA, read-out: IC50 against growth of M. tuberculosis (footnote d)): 12.5 µg/mL (≈ 83.2 µM)
5 | NNC(=O)c1ccncc1 [Isoniazid, reference compound] |  |  | 0.05 ± 0.003 (≈ 0.365 µM) |  | 
6 | CC(=O)O[C@H]1C(=O)[C@@]2(C)[C@H]([C@H](OC(=O)c3ccccc3)[C@]3(O)C[C@H](OC(=O)[C@H](O)[C@@H](NC(=O)c4ccccc4)c4ccccc4)C(C)=C1C3(C)C)[C@]1(OC(C)=O)CO[C@@H]1C[C@@H]2O [Paclitaxel, reference compound] |  |  |  | 61 | 
